The values that follow come from US20260327264A1, “PEPTIDE INHIBITORS OF INTERLEUKIN-23 RECEPTOR” (Zealand Pharma A/S, priority 2023, published 2026).

The subject of data set [1] is IL-23R. Conditions: see Examples of WO2023/099669; cited from earlier work.
In data set [2] the target is T1, human IL-23R (Homo sapiens, UniProt Q5VWK5).
T1 construct: Nanoluc luciferase (Nluc); secretion signal encoded by the plasmid (not specified); expressed in transfected cells; crude membranes used in the assay
T1 sequence (Q5VWK5 22-629): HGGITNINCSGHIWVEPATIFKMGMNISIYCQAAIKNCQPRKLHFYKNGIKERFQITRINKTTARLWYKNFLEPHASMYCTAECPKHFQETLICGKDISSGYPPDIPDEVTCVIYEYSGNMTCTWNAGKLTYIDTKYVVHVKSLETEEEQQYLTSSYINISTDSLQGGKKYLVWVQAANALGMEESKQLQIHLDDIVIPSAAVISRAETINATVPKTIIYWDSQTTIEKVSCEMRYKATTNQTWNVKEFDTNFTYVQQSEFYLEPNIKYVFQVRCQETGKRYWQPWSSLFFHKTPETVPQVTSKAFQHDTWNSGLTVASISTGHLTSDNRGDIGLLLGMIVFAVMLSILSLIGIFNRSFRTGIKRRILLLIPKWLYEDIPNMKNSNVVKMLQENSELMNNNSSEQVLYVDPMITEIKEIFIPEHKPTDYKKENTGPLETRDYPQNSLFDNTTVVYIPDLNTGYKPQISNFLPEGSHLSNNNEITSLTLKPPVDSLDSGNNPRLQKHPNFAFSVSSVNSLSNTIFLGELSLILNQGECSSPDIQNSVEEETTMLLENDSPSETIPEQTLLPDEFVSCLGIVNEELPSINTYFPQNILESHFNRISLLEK
Briefly: Binding assay: displacement of fluorophore (TAMRA)-labelled reference compound from human IL-23R (BRET, Nluc-IL23R fusion protein membranes). In general terms: Bioluminescence resonance energy transfer reports proximity on the nanometre scale.
Description: The assay principle relies on Bioluminescence Resonance Energy Transfer (BRET) between a fluorophore-labelled reference compound binding to the IL-23R part of a fusion protein consisting of the IL-23R fused to a Nanoluc luciferase enzyme (Nanoluc). The Nanoluc is placed in the N-terminus in close proximity to the binding domain of the ligand. Upon close proximity between the fluorophore of the fluorophore-labelled compound and the Nanoluc of the fusion protein, bioluminescence energy generated from conversion of a Nanoluc substrate, is transferred to the fluorophore resulting in an increase in BRET. In presence of an unlabelled compound, the unlabelled compound displaces the fluorophore-labelled peptide from its binding site resulting in a decrease in BRET. The concentration for which half of the fluorophore-labelled peptide is displaced by the unlabelled compound depends on the affinity of the compound for the IL-23R, and is termed the IC50 concentration.
The plasmid also contained a gene to confer resistance for the antibiotic hygromycin. A cell line stably expressing the Nluc-IL23R fusion protein was generated by transfection of HEK293 cells with the expression plasmid and selected with hygromycin for 3 weeks in Growth medium consisting of DMEM w/Glutamax-I containing, 10% V/V FBS, 1% V/V P/S, 1 mM Sodium Pyruvate, and 1× NEAA, and 0.3 mg/mL hygromycin. The remaining cells were propagated and considered a stable expressing Nluc-IL23R fusion protein pool clone.
Cells expressing the Nluc-IL23R fusion protein were expanded in Growth medium and membranes prepared by homogenization of a cell pellet from 18 T175 flasks (4° C. in subsequent steps). The cell pellet was lysed Tris 10 mM, 7.5, 1 mM EDTA and protease inhibitors (Complete, Roche) and homogenized using a 15 mL glass-dounce by 50 strokes. The homogenate was spun at spin @1500 rpm for 10 min, the supernatant transferred to SV-34 tubes and spun at 40000 g for 20 min at 4° C. to pellet the crude membranes. The supernatant was then removed, the pellet resuspended in 5 mL buffer containing 50 mM HEPES pH 7.4, 5 mM EGTA, and 5 mM MgCl2, and homogenized. Aliquots of the resuspended and homogenized membranes containing the Nluc-IL23R fusion protein were stored at −80° C. until use.
The plate was sealed with light impermeable plate seals, and incubated on an orbital shaker 400 rpm for 2 hours at room temperature. To determine the BRET ratio, the plate seal was removed and 25 μL of the Nanoluc substrate (Promega N1572) diluted 1:500 was added to each well and incubated for 1-2 minutes on an orbital shaker at 400 rpm. […] The BRET ratio was calculated as the fluorescence from the TAMRA/nanoluc bioluminescence.
Compound potency (IC50) and maximal displacement (% displacement) were estimated by computer-aided curve fitting using a 4-parameter logistic (4PL) non-linear model. The IC50 and maximal for each compound was determined by computer-aided curve fitting using a 4-parameter logistic (4PL) non-linear model.

The subject of data set [3] is IL-23 mediated STAT3 signalling (DB cells). Put plainly: Functional inhibition of IL-23 mediated STAT3 signalling (phospho-STAT3 Tyr705) in DB cells. The format is cell-based, human. Summed up: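 Phospho-STAT3 in lysed DB cells quantified by MSD kit after 90 min exposure to EC80 human IL-23, following 15 min compound pretreatment (37° C, 5% CO2). IC50 and maximal inhibition derived from curves normalized between IL-23-only and buffer-only controls.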

A short description of data set [4]: Peptide stability in simulated intestinal fluid (SIF). The format is in vitro ADME. Conditions: pig, simulated intestinal fluid; SIF, 1 h, pH 6.8, pancreatin, 37° C., 10 μM. Summed up:
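Peptide at 10 μM final in USP-type SIF (10 g/L porcine pancreatin, phosphate buffer pH 6.8), shaken at 37 °C. Samples at 0, 1 and 4 h quenched in acetonitrile/0.1% formic acid and analysed by LC-HRMS. Percent remaining calculated from absolute peak areas relative to time zero.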

The nature of data set [5]: Peptide stability in simulated gastric fluid (SGF). The format is in vitro ADME. The following applies: pig, 1 h, pH 1.2, pepsin, 37° C. A digest of the protocol: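 Peptide (10 μM final) incubated at 37 °C in USP SGF, pH 1.2 with porcine pepsin 3.2 g/L; aliquots at 0, 1 and 4 h quenched in acidified acetonitrile.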

In the case of “[Ac]-DK(1c)SC(2a)WQC(2a)WWLE(1c)R-[NH2] [Ref 7]”, the “inhibitory activity (in words), WO2023/099669” value (“inhibitory activity (in words)” below) in data set [1] was “inactive”.
As to “H-DC(1a)SE(2c)WQK(2c)WWLC(1a)R-[NH2] [Ref 5]”, in data set [1], the “inhibitory activity (in words)” value is “inactive”.
For the compound D(1c)*SC(2a)WQC(2a)WWLR(1c)* [Ref 6], in data set [1], the “inhibitory activity (in words)” value was “inactive”.
On to `CC(C)C[C@]1(C)NC(=O)[C@H](Cc2ccc3ccccc3c2)NC(=O)[C@H](Cc2ccc(OCCN)cc2)NC(=O)[C@@H]2CCNC(=O)CC[C@H](NC(=O)[C@H](CO)NC(=O)Cc3ccc(cc3)CNC(=O)CC[C@@H](C(=O)N[C@@H](CCN)C(=O)N[C@@H](Cc3cn(C)cn3)C(N)=O)NC1=O)C(=O)N[C@@H](Cc1c[nH]c3ccccc13)C(=O)N[C@@H](CCC(N)=O)C(=O)N2` [Compound 14, [4-Aminomethyl-phenylacetyl](1c)*SE(2c)WQ[Dab](2c)[Y(2-aminoethoxy)][2-Nal][2-Me-Leu]E(1c)[Dab][H(Me)]-[NH2]], for which the IC50 (in general, the concentration at which inhibition is half-maximal) turned out to be 0.11 nM in data set [2] and 7.2 nM in data set [3] (Table 3-2, EC80 of hIL-23, read-out: hIL-23 (pSTAT3) antagonist IC50). In data set [2] (read-out: % displacement (hIL-23R binding)), the Emax was 102%. Moreover, in data set [3] (Table 3-2, maximal inhibitory response, EC80 of hIL-23), the “hIL-23 (pSTAT3) antagonist % inhibition” value is on record as 99%. In addition, the amount remaining (usually the share of the starting amount still present when the sample was taken) at 1 h, 10 µM in data set [4] is 98%; in data set [5], 93%.
